In patent US20250214932A1, “T-TYPE CALCIUM CHANNEL MODULATORS COMPRISING AN AZASPIRONONANE CORE AND METHODS OF USE THEREOF” (Praxis Precision Medicines, Inc., priority 2022, published 2025):
Where two headings read alike, the source gives them in different places.

Biological target: Human Cav3.1 (Homo sapiens (Human), UniProt O43497)
Test: Human Cav3.1 calcium channel patch clamp assay (SyncroPatch 384PE, HEK-293 natClytin/TASK1+Cav3.1 cell line)
Format: cell-based
Description: Pulse generation and data collection were performed with PatchController384 V1.3.0 and DataController384 V1.2.1 (Nanion Technologies). Off-line analysis was performed using Excel and Graphpad Prism (V 8.4.2) with complete data files uploaded to Dotmatics. The access resistance and apparent membrane capacitance were estimated using built-in protocols. Current was recorded in whole cell configuration from a population of cells. The cells were lifted, triturated, and resuspended at 800,000 cells/ml. The cells were allowed to recover in the cell hotel prior to experimentation. Currents were recorded at room temperature. The external solution contained the following (in mM): NaCl 80, NMDG 60, KCl 4, MgCl2 1, CaCl2 6, glucose 5 and HEPES 10 (pH=7.4, Osmolarity ˜300 mOsm). The extracellular solution was used as the wash, reference and compound delivery solution. […] The compound plate was created at 2× concentrated in the extracellular solution. The compound was diluted to 1:2 when added to the recording well. The amount of DMSO in the extracellular solution was held constant at the level used for the highest tested concentration. For the voltage clamp experiments on Cav3.1, data were sampled at 10 KHz. After establishment of the seal and the passage in the whole cell configuration, the cells were held at −120 mV. Cav3.1 current was evoked using a 100 ms step to −20 mV (to measure resting state block), followed by a 1600 ms step to −65 mV and a second 100 ms step to −20 mV (to measure voltage dependent block). The voltage protocol was applied every 15 seconds in the absence and in the presence of the compounds under investigation. […] Current amplitude (pA) was measured in the peak 1 and 2. The average of last 3 sweeps of each liquid period (vehicle, compound under investigation, full block) was calculated. Nickel-sensitive current was used to calculate the % of inhibition in the presence of the compound under investigation.
Pulse generation and data collection were performed with PatchController384 V1.3.0 and DataController384 V1.2.1 (Nanion Technologies). Off-line analysis was performed using Excel and Graphpad Prism (V 8.4.2) with complete data files uploaded to Dotmatics. The access resistance and apparent membrane capacitance were estimated using built-in protocols. Current was recorded in whole cell configuration from a population of cells.
The cells were lifted, triturated, and resuspended at 800,000 cells/ml. The cells were allowed to recover in the cell hotel prior to experimentation. Currents were recorded at room temperature. The external solution contained the following (in mM): NaCl 80, NMDG 60, KCl 4, MgCl2 1, CaCl2 6, glucose 5 and HEPES 10 (pH=7.4, Osmolarity ˜300 mOsm). The extracellular solution was used as the wash, reference and compound delivery solution.
The compound plate was created at 2× concentrated in the extracellular solution. The compound was diluted to 1:2 when added to the recording well. The amount of DMSO in the extracellular solution was held constant at the level used for the highest tested concentration. For the voltage clamp experiments on Cav3.1, data were sampled at 10 KHz. After establishment of the seal and the passage in the whole cell configuration, the cells were held at −120 mV. Cav3.1 current was evoked using a 100 ms step to −20 mV (to measure resting state block), followed by a 1600 ms step to −65 mV and a second 100 ms step to −20 mV (to measure voltage dependent block). The voltage protocol was applied every 15 seconds in the absence and in the presence of the compounds under investigation. […] Current amplitude (pA) was measured in the peak 1 and 2. The average of last 3 sweeps of each liquid period (vehicle, compound under investigation, full block) was calculated. Nickel-sensitive current was used to calculate the % of inhibition in the presence of the compound under investigation.

[1] = patch clamp, HEK-293 natClytin/TASK1+Cav3.1 cells, class symbols, read-out: Human Cav3.1 IC50
[2] = voltage dependent block (VDB), read-out: Cav3.1 (VDB) IC50

Sequence of Human Cav3.1 (O43497 whole entry): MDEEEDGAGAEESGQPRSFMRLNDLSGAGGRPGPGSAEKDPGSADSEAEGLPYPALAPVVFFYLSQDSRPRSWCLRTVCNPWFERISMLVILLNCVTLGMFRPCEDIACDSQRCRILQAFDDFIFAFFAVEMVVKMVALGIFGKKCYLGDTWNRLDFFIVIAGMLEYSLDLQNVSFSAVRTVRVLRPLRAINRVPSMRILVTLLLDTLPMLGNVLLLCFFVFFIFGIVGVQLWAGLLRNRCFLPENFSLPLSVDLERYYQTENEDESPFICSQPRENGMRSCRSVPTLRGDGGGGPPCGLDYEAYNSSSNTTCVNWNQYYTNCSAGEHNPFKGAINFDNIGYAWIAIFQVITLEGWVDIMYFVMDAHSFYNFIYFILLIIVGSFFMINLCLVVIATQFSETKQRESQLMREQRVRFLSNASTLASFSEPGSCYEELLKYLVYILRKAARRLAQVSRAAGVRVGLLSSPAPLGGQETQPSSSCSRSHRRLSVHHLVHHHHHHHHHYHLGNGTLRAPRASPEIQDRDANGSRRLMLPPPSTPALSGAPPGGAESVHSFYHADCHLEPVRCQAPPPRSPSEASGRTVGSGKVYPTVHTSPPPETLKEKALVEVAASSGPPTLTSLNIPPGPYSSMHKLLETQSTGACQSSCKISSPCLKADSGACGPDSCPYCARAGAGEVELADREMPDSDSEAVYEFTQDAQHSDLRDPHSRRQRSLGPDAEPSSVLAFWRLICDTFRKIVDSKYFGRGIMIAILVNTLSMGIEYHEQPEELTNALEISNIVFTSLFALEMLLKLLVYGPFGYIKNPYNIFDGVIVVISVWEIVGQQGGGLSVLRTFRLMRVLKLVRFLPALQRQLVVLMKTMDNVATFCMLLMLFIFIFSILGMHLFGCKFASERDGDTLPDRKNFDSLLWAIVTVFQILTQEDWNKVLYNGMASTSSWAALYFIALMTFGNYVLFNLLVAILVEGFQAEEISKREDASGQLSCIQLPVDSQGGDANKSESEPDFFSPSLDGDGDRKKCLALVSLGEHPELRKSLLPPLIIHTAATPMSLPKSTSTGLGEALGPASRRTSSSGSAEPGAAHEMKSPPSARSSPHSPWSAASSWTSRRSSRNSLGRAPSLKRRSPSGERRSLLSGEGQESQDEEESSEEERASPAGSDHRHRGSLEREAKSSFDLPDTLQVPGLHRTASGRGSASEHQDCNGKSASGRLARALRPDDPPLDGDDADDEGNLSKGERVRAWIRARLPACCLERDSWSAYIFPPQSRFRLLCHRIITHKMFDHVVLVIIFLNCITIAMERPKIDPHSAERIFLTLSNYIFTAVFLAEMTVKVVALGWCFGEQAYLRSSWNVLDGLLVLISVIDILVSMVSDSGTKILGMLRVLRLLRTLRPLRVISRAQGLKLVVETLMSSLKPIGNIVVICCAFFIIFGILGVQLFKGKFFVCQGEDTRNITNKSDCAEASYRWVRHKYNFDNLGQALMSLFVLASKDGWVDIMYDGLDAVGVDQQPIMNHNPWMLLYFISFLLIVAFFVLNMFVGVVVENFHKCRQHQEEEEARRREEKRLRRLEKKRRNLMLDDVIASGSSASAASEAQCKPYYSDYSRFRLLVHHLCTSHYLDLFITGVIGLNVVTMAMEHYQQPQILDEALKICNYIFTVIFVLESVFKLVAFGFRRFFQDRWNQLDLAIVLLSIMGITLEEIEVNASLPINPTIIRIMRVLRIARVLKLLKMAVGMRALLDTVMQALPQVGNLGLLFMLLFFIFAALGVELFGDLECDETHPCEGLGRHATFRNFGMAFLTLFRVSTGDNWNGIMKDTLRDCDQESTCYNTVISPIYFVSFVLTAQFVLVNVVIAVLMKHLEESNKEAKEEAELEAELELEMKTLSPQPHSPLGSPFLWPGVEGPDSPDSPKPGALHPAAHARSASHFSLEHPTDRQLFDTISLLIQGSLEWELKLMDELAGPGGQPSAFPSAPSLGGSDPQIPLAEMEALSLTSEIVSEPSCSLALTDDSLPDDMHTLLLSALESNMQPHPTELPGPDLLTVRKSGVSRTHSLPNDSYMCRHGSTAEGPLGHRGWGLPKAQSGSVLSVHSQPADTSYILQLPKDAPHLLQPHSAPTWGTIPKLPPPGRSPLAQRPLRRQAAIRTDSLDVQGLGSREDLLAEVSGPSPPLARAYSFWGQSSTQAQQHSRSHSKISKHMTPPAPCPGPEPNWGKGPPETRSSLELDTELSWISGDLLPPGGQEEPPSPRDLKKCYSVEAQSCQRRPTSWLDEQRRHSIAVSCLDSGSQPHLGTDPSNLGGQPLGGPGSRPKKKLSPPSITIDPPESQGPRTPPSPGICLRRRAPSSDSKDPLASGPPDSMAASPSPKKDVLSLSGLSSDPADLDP

Row | IC50 [1] [nM] | IC50 [2] [nM] | Compound
1 | < 1000 | 102 | CC1(NC(=O)CN2CC3(CCC(C(=O)Nc4cc(F)cc(C(F)F)c4)CC3)C2)CCC1 [Example 29]
2 | < 1000 | 192 | CC(C)(NC(=O)CN1CC2(CCC(C(=O)Nc3cc(F)cc(C(F)F)c3)CC2)C1)C(F)(F)F [Example 30]
3 | < 1000 | 376 | O=C(Nc1cc(F)cc(C(F)F)c1)C1CCC2(CC1)CN(CCC1CCCC1)C2 [Example 31]
4 | < 1000 | 139 | O=C(CN1CC2(CCC(C(=O)Nc3cc(F)cc(C(F)F)c3)CC2)C1)NC1CCCC1 [Example 32]
5 | < 1000 | 339 | CC(C)(C)CCN1CC2(CCC(C(=O)Nc3cc(F)cc(C(F)F)c3)CC2)C1 [Example 33]
6 | < 1000 | 199 | CCC(C)(C)N(C)C(=O)CN1CC2(CCC(C(=O)Nc3cc(F)cc(C(F)F)c3)CC2)C1 [Example 34]
7 | < 1000 | 320 | CN(C(=O)CN1CC2(CCC(C(=O)Nc3cc(F)cc(C(F)F)c3)CC2)C1)C1CCCC1 [Example 35]
8 | < 1000 | 327 | CC(C)(CCN1CC2(CCC(C(=O)Nc3cc(F)cc(C(F)F)c3)CC2)C1)C(F)(F)F [Example 36]
9 | < 1000 | 323 | O=C(Nc1cc(F)cc(C(F)F)c1)C1CCC2(CC1)CN(CCC1CCC(F)(F)CC1)C2 [Example 37]
10 | < 1000 | 367 | CC1(CCN2CC3(CCC(C(=O)Nc4cc(F)cc(C(F)F)c4)CC3)C2)CC1 [Example 38]
11 |  | 294 | CC(C)(C)NC(=O)CN1CC2(CCC(C(=O)Nc3cccc(Cl)c3)CC2)C1 [Example 39]
12 |  | 338 | CN(C(=O)CN1CC2(CCC(C(=O)Nc3cc(F)cc(C(F)F)c3)CC2)C1)C1(C)CCC1 [Example 40]
13 |  | 846 | O=C(Nc1cc(F)cc(C(F)F)c1)C1CCC2(CC1)CN(CC(=O)N1CCOCC1)C2 [Example 41]
14 |  | 703 | O=C(Nc1cc(F)cc(C(F)F)c1)C1CCC2(CC1)CN(CC(=O)N1CCOCC13CC3)C2 [Example 42]
15 |  | 300 | CC1(CCN2CC3(CCC(C(=O)Nc4cc(F)cc(C(F)F)c4)CC3)C2)CCC1 [Example 43]
16 |  | 176 | CC1(C)COCCN1C(=O)CN1CC2(CCC(C(=O)Nc3cc(F)cc(C(F)F)c3)CC2)C1 [Example 44]
17 |  | 191 | COCC(C)(C)NC(=O)CN1CC2(CCC(C(=O)Nc3cc(F)cc(C(F)F)c3)CC2)C1 [Example 45]
18 |  | 723 | CC1(C(=O)NCCN2CC3(CCC(C(=O)Nc4cc(F)cc(C(F)F)c4)CC3)C2)CC1 [Example 49]
19 |  | 284 | O=C(Nc1cc(F)cc(C(F)F)c1)C1CCC2(CC1)CN(CCNC(=O)C1(C(F)(F)F)CC1)C2 [Example 50]
20 |  | 469 | CC(C)(C)NC(=O)CN1CC2(CCC(F)(C(=O)Nc3cc(F)cc(C(F)F)c3)CC2)C1 [Example 51]
21 |  | 447 | CC1(C(=O)NCCN2CC3(CCC(C(=O)Nc4cc(F)cc(C(F)F)c4)CC3)C2)CCC1 [Example 53]
22 |  | 296 | CC(C)(C)NC(=O)CN1CC2(CCC(C(=O)Nc3cccc(OC(F)F)c3)CC2)C1 [Example 55]
23 |  | 513 | CC(C)(C)OC(=O)CN1CC2(CCC(C(=O)Nc3cc(F)cc(Cl)c3)CC2)C1 [Example 56]
24 |  | 709 | O=C(CN1CC2(CCC(C(=O)Nc3cc(F)cc(Cl)c3)CC2)C1)OC1CCCC1 [Example 57]
25 |  | 59.7 | O=C(CN1CC2(CCC(C(=O)Nc3cc(F)cc(Cl)c3)CC2)C1)NC1(C(F)(F)F)CC1 [Example 58]
26 |  | 146 | CC1(NC(=O)CN2CC3(CCC(C(=O)Nc4cc(F)cc(Cl)c4)CC3)C2)CC1 [Example 59]
27 |  | 130 | O=C(Nc1cc(F)cc(Cl)c1)C1CCC2(CC1)CN(CC1(O)CCC(F)(F)CC1)C2 [Example 60]
28 |  | 440 | O=C(Nc1cc(F)cc(Cl)c1)C1CCC2(CC1)CN(CC1CCC(F)(F)CC1)C2 [Example 61]

Row | IC50 [1] [nM] | IC50 [2] [nM] | Compound
29 |  | 511 | CC(C)(C)NC(=O)CN1CC2(CCC(C(=O)Nc3cccc(C(F)F)c3)CC2)C1 [Example 62]
30 |  | 492 | CC(C)(C)NC(=O)CN1CC2(CCC(C(=O)Nc3cccc(OC(F)(F)F)c3)CC2)C1 [Example 63]
31 |  | 617 | CC1(OC(=O)CN2CC3(CCC(C(=O)Nc4cc(F)cc(Cl)c4)CC3)C2)CC1 [Example 64]
32 |  | 430 | CC(C)(NC(=O)CN1CC2(CCC(C(=O)Nc3cccc(C(F)F)c3)CC2)C1)C(F)(F)F [Example 65]
33 |  | 372 | CC(C)(NC(=O)CN1CC2(CCC(C(=O)Nc3cccc(C(F)(F)F)c3)CC2)C1)C(F)(F)F [Example 66]
34 |  | 580 | CC(C)(C)ONC(=O)CN1CC2(CCC(C(=O)Nc3cc(F)cc(Cl)c3)CC2)C1 [Example 67]
35 |  | 235 | CC(C)(NC(=O)CN1CC2(CCC(C(=O)Nc3cccc(OC(F)F)c3)CC2)C1)C(F)(F)F [Example 69]
36 |  | 333 | CC(C)(NC(=O)CN1CC2(CCC(C(=O)Nc3cccc(OC(F)(F)F)c3)CC2)C1)C(F)(F)F [Example 70]
37 |  | 588 | CC1(C)CCC(=O)N1CCN1CC2(CCC(C(=O)Nc3cc(F)cc(C(F)F)c3)CC2)C1 [Example 71]
38 |  | 1040 | CN(CCN1CC2(CCC(C(=O)Nc3cc(F)cc(C(F)F)c3)CC2)C1)C(=O)C1(C)CC1 [Example 72]
39 |  | 333 | O=C(Nc1cc(F)cc(Cl)c1)C1CCC2(CC1)CN(CC1(F)CCC(F)(F)CC1)C2 [Example 73]
40 |  | 941 | O=C(Nc1cc(F)cc(Cl)c1)C1CCC2(CC1)CN(CC(F)(F)C1CCCCC1)C2 [Example 74]
41 |  | 1080 | COc1cccc(NC(=O)C2CCC3(CC2)CN(CC(=O)NC(C)(C)C)C3)c1 [Example 75]
42 |  | 550 | CC1(S(=O)(=O)NCCN2CC3(CCC(C(=O)Nc4cc(F)cc(C(F)F)c4)CC3)C2)CC1 [Example 76]
43 |  | 439 | O=C(Nc1cc(F)cc(Cl)c1)C1CCC2(CC1)CN(CC(F)C1CCCC1)C2 (centres unmarked) [Example 77]
44 |  | 1070 | O=C(Nc1cc(F)cc(Cl)c1)C1CCC2(CC1)CN(CC(F)(F)C1CCCC1)C2 [Example 78]
45 |  | 428 | O=C(Nc1cc(F)cc(C(F)F)c1)C1CCC2(CC1)CN(CCS(=O)(=O)c1ccccc1)C2 [Example 80]
46 |  | 307 | CC1(OC(=O)NCCN2CC3(CCC(C(=O)Nc4cc(F)cc(Cl)c4)CC3)C2)CC1 [Example 81]
47 |  | 238 | COc1cc(F)cc(NC(=O)C2CCC3(CC2)CN(CC(=O)NC2(C(F)(F)F)CC2)C3)c1 [Example 82]
48 |  | 110 | COc1cc(F)cc(NC(=O)C2CCC3(CC2)CN(CC(=O)NC2(C(F)(F)F)CCC2)C3)c1 [Example 84]
49 |  | 344 | O=C(CN1CC2(CCC(C(=O)Nc3cc(F)cc(C(F)F)c3)CC2)C1)NC1(C(F)(F)F)COC1 [Example 86]
50 |  | 855 | CC(C)(C)S(=O)(=O)CCN1CC2(CCC(C(=O)Nc3cc(F)cc(C(F)F)c3)CC2)C1 [Example 87]
51 |  | 1010 | COc1cc(F)cc(NC(=O)C2CCC3(CC2)CN(CCS(=O)(=O)C(C)(C)C)C3)c1 [Example 88]
52 |  | 522 | O=C(CN1CC2(CCC(C(=O)Nc3cc(F)cc(Cl)c3)CC2)C1)NC1(C(F)(F)F)COC1 [Example 89]
53 |  | 802 | COc1cc(F)cc(NC(=O)C2CCC3(CC2)CN(CC(F)(F)C2CCCCC2)C3)c1 [Example 90]
54 |  | 576 | O=C(Nc1cc(F)cc(Cl)c1)C1CCC2(CC1)CN(CCS(=O)(=O)c1ccccc1)C2 [Example 91]
55 |  | 905 | O=C(Nc1cc(F)cc(C(F)F)c1)C1CCC2(CC1)CN(CC(F)(F)C1CCCCC1)C2 [Example 92]
